Source: US12516049B2, “Sulfonylurea ring substituted monocyclic β-lactam antibiotics” (priority 2019, dated 2026)
Converted amounts (≈) assume the structure as drawn.

Legend:
[1] = tested on: Klebsiella pneumoniae ATCC-BAA 2470; assay: Mouse thigh muscle infection model, Klebsiella pneumoniae ATCC-BAA 2470; assay type: in vivo; details: immunodeficient female CD-1 mice; Klebsiella pneumoniae ATCC-BAA 2470 9.5E+06 CFU/mouse; 200 mg/kg every 2 h from 2 h; end point 24 h
Protocol: 15 female CD-1 mice were divided into 5 cages, 3 mice per cage; the day of infection was counted as day 0.
Immunosuppressant cyclophosphamide 150 mg/kg were injected intraperitoneally on Day-4, and immunosuppressant cyclophosphamide 100 mg/kg was injected intraperitoneally again on the first day to obtain immunodeficient mice.
The strain Klebsiella pneumoniae ATCC-BAA 2470 was recovered on an MHA plate on the first day. The recovered colonies were picked and dissolved in sterile saline to prepare bacterial solution with a concentration of 9.5E+07 CFU/mL for use in mouse thigh muscle infection. The infection starting time was counted as 0 h, and 100 μL of bacterial solution is injected into the thigh muscle of each mouse at 0 h, that is, the inoculation amount is 9.5E+06 CFU/mouse. 2 h after infection, the drugs were administered according to the experimental scheme. The specific experimental scheme is as follows (see Table 5): […]
(2) 2 h after infection: Mice in the second to third cages were administered separately at a volume of 10 mL/kg according to the mouse body weight. […] The amount of bacteria loaded in the thigh muscle tissue of the mouse was counted, and the experimental results were shown in Table 6.

[2] = tested on: clinically isolated carbapenem-resistant enterobacteriaceae; assay type: cell-based; details: single drug; panel of 26 strains of Table 2
Protocol: The minimum inhibitory concentration (MIC) of the compound and combination with β-lactamase (MBLs) inhibitors against clinically isolated carbapenem-resistant enterobacteriaceae was determined by the two-fold agar dilution method to determine the activity of the compound to be tested against strains producing MBLs. […] The mother liquor was diluted to the concentration to be tested by double dilution method, an inoculum liquid was prepared by direct bacterial suspension method, 1 mL of the prepared bacteria solution was withdrawn and putted into the inoculation tube, and a positioning needle and an inoculation needle were installed. A bacterial multi-point inoculator was started for inoculation. After the bacterial solution was absorbed by the agar, the plate was placed upside down in an incubator at 37° C. for 16-20 hours, and the results were observed. The average of three tests was taken.

[3] = tested on: Klebsiella pneumonia ATCC BAA-205 (TEM-1/SHV-1/SHV-12); assay: MIC, micro-liquid dilution (CLSI); assay type: cell-based; details: Klebsiella pneumoniae, ATCCBAA205; K. pneumonia ATCC BAA-205, Class A (TEM-1/SHV-1/SHV-12); 20-24 h, 37° C.
Protocol: (§1) Three strains of Klebsiella pneumonia, ATCC BAA-205 (TEM-1/SHV-1/SHV-12), ATCC BAA-1705 (KPC-2), ATCC BAA-2470 (NDM-1), Enterobacter cloacae ATCC BAA-1143 (AmpC), two strains of Escherichia coli ATCC BAA-2523 (OXA-48), ATCC 25922 were used to determine the minimum inhibitory concentration (MIC) of each of the compounds by micro-liquid dilution method according to the Institute of Clinical and Laboratory Standard (CLSI) requirements. […]. The plate was placed upside down at 37° C. and the MIC value was read after 20-24 h of incubation, and the lowest drug concentration that inhibited the growth of bacteria was set as MIC. Colony-Forming Units (CFU) refer to the total number of bacterial colonies per unit volume.

[4] = tested on: Escherichia coli ATCC BAA-2523 (OXA-48); assay: MIC, micro-liquid dilution (CLSI); assay type: cell-based; details: ATCCBAA2523
Protocol: as §1

[5] = tested on: Escherichia coli ATCC 25922; assay: MIC, micro-liquid dilution (CLSI); assay type: cell-based; details: ATCC25922, E. coli ATCC 25922, 20-24 h, 37° C.
Protocol: as §1

[6] = tested on: Klebsiella pneumonia ATCC BAA-2470 (NDM-1); assay: MIC, micro-liquid dilution (CLSI); assay type: cell-based; details: Klebsiella pneumoniae, ATCCBAA2470; K. pneumonia ATCC BAA-2470, Class B (NDM-1); 20-24 h, 37° C.
Protocol: as §1

[7] = tested on: Enterobacter cloacae ATCC BAA-1143 (AmpC); assay: MIC, micro-liquid dilution (CLSI); assay type: cell-based; details: ATCCBAA1143, E. cloacae ATCC BAA-1143, Class C (AmpC), 20-24 h, 37° C.
Protocol: as §1

[8] = tested on: Klebsiella pneumonia ATCC BAA-1705 (KPC-2); assay: MIC, micro-liquid dilution (CLSI); assay type: cell-based; details: Klebsiella pneumoniae, ATCCBAA1705; K. pneumonia ATCC BAA-1705, Class A (KPC-2); 20-24 h, 37° C.
Protocol: as §1

NC[C@@H]1CN(C[C@@H]2[C@H](NC(=O)/C(=N\OC3(C(=O)O)CC3)c3csc(N)n3)C(=O)N2S(=O)(=O)O)S(=O)(=O)N1 [Compound 4]
Average CFU of the mouse (amount of bacteria loaded in thigh muscle tissue) [1]: 3.93E+06 CFU/mouse
MIC50 [2]: 0.125 µg/mL
MIC90 [2]: 1 µg/mL
MIC [3]: 0.5 µg/mL (≈ 0.858 µM)
MIC [4]: 0.125 µg/mL (≈ 0.215 µM)
MIC [5]: 0.25 µg/mL (≈ 0.429 µM)
MIC [6]: 0.25 µg/mL (≈ 0.429 µM)
MIC [7]: 0.5 µg/mL (≈ 0.858 µM)
MIC [8]: 1 µg/mL (≈ 1.72 µM)
